Laboratory results from patent publication US12122763B2, “Substituted piperidines for androgen receptor degradation” (UBIX THERAPEUTICS, INC., priority 2020, dated 2024).

Target: T1, Androgen Receptor (AR) protein (Homo sapiens, UniProt P10275, T878A)
T1 construct: endogenous in cells; host or cells: LNCaP
Assay: Androgen Receptor (AR) protein degradation assay in LNCaP cells, western blotting
Format: cell-based
Settings: 20 h; for inhibition at 0.01 µM: 0.01 μM compound; for inhibition at 0.1 µM: 0.1 μM compound; for inhibition at 1 µM: 1 μM compound; for inhibition at 10 µM: 10 μM compound
Protocol: Experimental Example 1: Androgen Receptor (AR) Protein Degradation Assay
After treating LNCaP cells with the synthesized Example compound, the amount of AR protein present in the cells was measured. The amount of AR protein was measured using western blotting detection method. The protocol of the experiment using LNCaP cells was as follows:
[Culture] LNCaP cells were resuspended in RPMI1640 MEDIUM (Hyclone, SH30027.01), 10% FBS (Hyclone, SV30207.02), and 1% Penicillin-streptomycin (Welgene, LS 202-02) media to be 3×10^5/mL. Then, 1 mL each was seeded in a 12-well plate. After that, they were cultured for 3 days.
[Compound treatment] 10 μl of 0.1, 1, 10, and 100 μM compound, which is the final compound treatment concentration and a 100× stock of 0.001, 0.01, 0.1, and 1 μM, was added in 1 ml media of each well, and 20 hours later, the cells were harvested.
[Cell Lysis] Cell pellets were suspended using 1% SDS lysis buffer (50 mM Tris, 1 mM EDTA, 1% SDS, pH 8.0, 0.5 mM PMSF, 1× Protease/Phosphatase inhibitor Cocktail (Cell Signaling Technology, 5872s)), and sonication (70% AMP, 5 cycles (30 sec ON/59 sec OFF)) was performed. Cell lysate was obtained after centrifugation at 4° C., 15000 g, for 20 minutes.
[Protein quantification] A BCA protein assay (SMART™ BCA Protein Assay Kit, iNtRON Biotechnology, 21071) was performed using a 96-well microplate. After adding 5 μl cell lysate and 5 μl 1% SDS lysis buffer to each well of the 96-well plate, 200 μl of BCA reagent (Reagent A:Reagent B=50:1) was additionally added. After incubation at 37° C. for 30 minutes, it was cooled at room temperature for 10 minutes. Then, absorbance was measured at a wavelength of 562 nm. The unknown protein concentration was measured using a BSA standard curve (0, 0.125, 0.25, 0.5, 1, 2 mg/ml). Western blotting samples were prepared by mixing cell lysate, 1% SDS lysis buffer, 4× Bolt™ LDS Sample buffer (Invitrogen, B0008), and 10× Bolt™ Sample Reducing Agent (Invitrogen, B0009) and boiling the mixture at 70° C. for 10 minutes.
[Electrophoresis] After loading 8 μg of protein sample into each well of Bolt™ 4 to 12%, Bis-Tris, 1.0 mm Mini Protein Gel, 17-well (Invitrogen, NW04127BOX), Bolt™ MES SDS Running Buffer (Invitrogen, B0002) was used for electrophoresis at 200V (constant V) for 50 minutes.
[Transfer] Using electrophoresis gel and Trans-Blot® Turbo™ Transfer Starter System (Bio-RAD, #17001918, Mini Nitrocellulose), transfer proceeded for 15 minutes under the condition of 1.3A (Constant A) and 25V (Limit V). To confirm protein transfer, 15 ml of Ponceau S solution (Sigma, P7170-1L) was used for staining for 1 minute, followed by washing to confirm the degree of transfer.
[Blocking] Membranes for AR detection were blocked for 45 minutes with 5% skim milk/0.2% TBST (Skim milk: BD, 232100/20× TBS: Biosesang, TR2008-100-00/10% Tween 20 Solution: Bio-RAD, #161-0781). Membranes for GAPDH and β-actin detection were blocked for 45 minutes with Odyssey blocking buffer: 0.1% TBST=1:1 (Odyssey blocking buffer: Li-COR Biosciences, 927-50000).
[Antibody and detection] The primary AR antibody (Androgen Receptor: CST, 5153s) was mixed with 5% skim milk/0.2% TBST at a ratio of 1:1000 and attached for 3 hours at room temperature. Primary β-actin antibody (GeneTex, 629630) was mixed with 5% BSA/0.2% TBST at a ratio of 1:2000 and attached for 3 hours at room temperature. Primary GAPDH antibody (GeneTex, 100118) was mixed with 5% BSA/0.2% TBST at a ratio of 1:2000 and attached for 3 hours at room temperature. After 3 hours, it was washed 3 times every 5 minutes using TBST (0.2% Tween 20). Anti-rabbit IgG, HRP-linked Antibody (CST, 7074s), secondary antibody for the AR antibody was mixed with 5% skim milk/0.2% TBST at a ratio of 1:5000 and attached for 45 minutes at room temperature. […]

T1 sequence (P10275 whole entry T878A): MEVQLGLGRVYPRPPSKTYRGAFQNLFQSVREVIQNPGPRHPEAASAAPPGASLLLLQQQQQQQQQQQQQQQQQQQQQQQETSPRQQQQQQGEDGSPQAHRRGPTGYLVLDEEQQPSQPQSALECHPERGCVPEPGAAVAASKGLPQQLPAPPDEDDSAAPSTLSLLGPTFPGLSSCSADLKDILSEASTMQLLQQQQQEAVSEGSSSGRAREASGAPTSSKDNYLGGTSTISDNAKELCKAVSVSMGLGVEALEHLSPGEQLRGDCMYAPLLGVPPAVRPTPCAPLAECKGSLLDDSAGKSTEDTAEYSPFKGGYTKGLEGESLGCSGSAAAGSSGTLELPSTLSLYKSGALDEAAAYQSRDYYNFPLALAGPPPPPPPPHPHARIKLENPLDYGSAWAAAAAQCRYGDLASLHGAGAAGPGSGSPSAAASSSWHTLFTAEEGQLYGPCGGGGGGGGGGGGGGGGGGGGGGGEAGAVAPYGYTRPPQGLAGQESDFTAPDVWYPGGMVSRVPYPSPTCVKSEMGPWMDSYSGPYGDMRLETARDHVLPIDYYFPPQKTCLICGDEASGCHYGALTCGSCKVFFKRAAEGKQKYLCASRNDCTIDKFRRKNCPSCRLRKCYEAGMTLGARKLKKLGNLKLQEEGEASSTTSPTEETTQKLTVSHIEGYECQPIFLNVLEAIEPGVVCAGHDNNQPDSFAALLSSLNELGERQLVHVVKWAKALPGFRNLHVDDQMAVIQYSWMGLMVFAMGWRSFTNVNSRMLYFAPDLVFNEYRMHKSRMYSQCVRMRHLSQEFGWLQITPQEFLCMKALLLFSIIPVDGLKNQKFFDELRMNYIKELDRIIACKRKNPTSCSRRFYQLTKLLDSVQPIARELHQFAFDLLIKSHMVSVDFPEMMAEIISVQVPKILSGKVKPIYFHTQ
T1 sequence (Q96SW2 whole entry partner): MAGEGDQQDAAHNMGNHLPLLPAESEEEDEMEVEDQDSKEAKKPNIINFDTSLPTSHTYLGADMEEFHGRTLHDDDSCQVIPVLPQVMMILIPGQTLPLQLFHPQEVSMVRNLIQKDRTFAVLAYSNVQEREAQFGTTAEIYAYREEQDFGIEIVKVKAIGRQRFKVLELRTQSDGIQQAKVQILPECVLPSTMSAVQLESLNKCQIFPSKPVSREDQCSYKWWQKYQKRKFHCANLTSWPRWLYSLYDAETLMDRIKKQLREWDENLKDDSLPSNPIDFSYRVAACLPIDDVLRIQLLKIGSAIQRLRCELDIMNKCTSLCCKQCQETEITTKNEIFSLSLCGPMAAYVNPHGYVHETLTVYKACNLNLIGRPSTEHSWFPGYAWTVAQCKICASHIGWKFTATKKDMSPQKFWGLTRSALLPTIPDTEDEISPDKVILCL

Row | SMILES | inhibition at 0.01 µM [%] | inhibition at 0.1 µM [%] | inhibition at 1 µM [%] | inhibition at 10 µM [%]
1 | N#Cc1ccc(N2CCC(C(=O)Nc3ccc(N4CCC(CN5CCN(c6ccc7c(c6)C(=O)N(C6CCC(=O)NC6=O)C7=O)CC5)CC4)cn3)CC2)cc1C(F)(F)F (stereo not drawn) [Example 1, 1-(4-cyano-3-(trifluoromethyl)phenyl)-N-(5-(4-((4-(2-(2,6-dioxopiperidin-3-yl)-1,3-dioxoisoindolin-5-yl)piperazin-1-yl)methyl)piperidin-1-yl)pyridin-2-yl)piperidine-4-carboxamide] | 55 | 98 | 99 | 99
2 | N#Cc1ccc(N2CCC(C(=O)Nc3ccc(N4CCC(CN5CCN(c6ccc7c(c6)C(=O)N(C6CCC(=O)NC6=O)C7=O)CC5)CC4)cn3)CC2)cc1Cl (stereo not drawn) [Example 2, 1-(3-chloro-4-cyanophenyl)-N-(5-(4-((4-(2-(2,6-dioxopiperidin-3-yl)-1,3-dioxoisoindolin-5-yl)piperazin-1-yl)methyl)piperidin-1-yl)pyridin-2-yl)piperidine-4-carboxamide] | -9 | 68 | 97 | 96
3 | N#Cc1ccc(N2CCC(C(=O)Nc3ccc(N4CCC(CN5CCN(CCOc6ccc7c(c6)C(=O)N(C6CCC(=O)NC6=O)C7=O)CC5)CC4)cn3)CC2)cc1C(F)(F)F (stereo not drawn) [Example 3, 1-(4-cyano-3-(trifluoromethyl)phenyl)-N-(5-(4-((4-(2-((2-(2,6-dioxopiperidin-3-yl)-1,3-dioxoisoindolin-5-yl)oxy)ethyl)piperazin-1-yl)methyl)piperidin-1-yl)pyridin-2-yl)piperidine-4-carboxamide] | 45 | 98 | 96 | –
4 | N#Cc1ccc(N2CCC(C(=O)Nc3ccc(N4CCC(CN5CCN(Cc6ccc7c(c6)C(=O)N(C6CCC(=O)NC6=O)C7=O)CC5)CC4)cn3)CC2)cc1C(F)(F)F (stereo not drawn) [Example 4, 1-(4-cyano-3-(trifluoromethyl)phenyl)-N-(5-(4-((4-((2-(2,6-dioxopiperidin-3-yl)-1,3-dioxoisoindolin-5-yl)methyl)piperazin-1-yl)methyl)piperidin-1-yl)pyridin-2-yl)piperidine-4-carboxamide] | 24 | 86 | 96 | –
5 | N#Cc1ccc(N2CCC(C(=O)Nc3ccc(N4CCC(CN5CCN(C(=O)CNc6ccc7c(c6)C(=O)N(C6CCC(=O)NC6=O)C7=O)CC5)CC4)cn3)CC2)cc1C(F)(F)F (stereo not drawn) [Example 5, 1-(4-cyano-3-(trifluoromethyl)phenyl)-N-(5-(4-((4-((2-(2,6-dioxopiperidin-3-yl)-1,3-dioxoisoindolin-5-yl)glycyl)piperazin-1-yl)methyl)piperidin-1-yl)pyridin-2-yl)piperidine-4-carboxamide] | 82 | 97 | 97 | 97
6 | N#Cc1ccc(N2CCC(C(=O)Nc3ccc(N4CCC(CN5CCN(CC6CCN(c7ccc8c(c7)C(=O)N(C7CCC(=O)NC7=O)C8=O)CC6)CC5)CC4)cn3)CC2)cc1Cl (stereo not drawn) [Example 7, 1-(3-chloro-4-cyanophenyl)-N-(5-(4-((4-((1-(2-(2,6-dioxopiperidin-3-yl)-1,3-dioxoisoindolin-5-yl)piperidin-4-yl)methyl)piperazin-1-yl)methyl)piperidin-1-yl)pyridin-2-yl)piperidine-4-carboxamide] | 87 | 99 | 99 | 94
7 | N#Cc1ccc(N2CCC(F)(C(=O)Nc3ccc(N4CCC(CN5CCN(CC6CCN(c7ccc8c(c7)C(=O)N(C7CCC(=O)NC7=O)C8=O)CC6)CC5)CC4)cn3)CC2)cc1C(F)(F)F (stereo not drawn) [Example 8, 1-(4-cyano-3-(trifluoromethyl)phenyl)-N-(5-(4-((4-((1-(2-(2,6-dioxopiperidin-3-yl)-1,3-dioxoisoindolin-5-yl)piperidin-4-yl)methyl)piperazin-1-yl)methyl)piperidin-1-yl)pyridin-2-yl)-4-fluoropiperidine-4-carboxamide] | 37 | 87 | 95 | –
8 | N#Cc1ncc(N2CCC(C(=O)Nc3ccc(N4CCC(CN5CCN(CC6CCN(c7ccc8c(c7)C(=O)N(C7CCC(=O)NC7=O)C8=O)CC6)CC5)CC4)cn3)CC2)cc1C(F)(F)F (stereo not drawn) [Example 9, 1-(6-cyano-5-(trifluoromethyl)pyridin-3-yl)-N-(5-(4-((4-((1-(2-(2,6-dioxopiperidin-3-yl)-1,3-dioxoisoindolin-5-yl)piperidin-4-yl)methyl)piperazin-1-yl)methyl)piperidin-1-yl)pyridin-2-yl)piperidine-4-carboxamide] | 62 | 95 | 95 | –
9 | N#Cc1ncc(N2CCC(F)(C(=O)Nc3ccc(N4CCC(CN5CCN(CC6CCN(c7ccc8c(c7)C(=O)N(C7CCC(=O)NC7=O)C8=O)CC6)CC5)CC4)cn3)CC2)cc1C(F)(F)F (stereo not drawn) [Example 10, 1-(6-cyano-5-(trifluoromethyl)pyridin-3-yl)-N-(5-(4-((4-((1-(2-(2,6-dioxopiperidin-3-yl)-1,3-dioxoisoindolin-5-yl)piperidin-4-yl)methyl)piperazin-1-yl)methyl)piperidin-1-yl)pyridin-2-yl)-4-fluoropiperidine-4-carboxamide] | 9 | 52 | 74 | –
10 | N#Cc1ccc(N2CCC(C(=O)Nc3ccc(N4CCC(CN5CCN(CC6CN(c7ccc8c(c7)C(=O)N(C7CCC(=O)NC7=O)C8=O)C6)CC5)CC4)cn3)CC2)cc1C(F)(F)F (stereo not drawn) [Example 11, 1-(4-cyano-3-(trifluoromethyl)phenyl)-N-(5-(4-((4-((1-(2-(2,6-dioxopiperidin-3-yl)-1,3-dioxoisoindolin-5-yl)azetidin-3-yl)methyl)piperazin-1-yl)methyl)piperidin-1-yl)pyridin-2-yl)piperidine-4-carboxamide] | 76 | 97 | 97 | 93
11 | N#Cc1ccc(N2CCC(C(=O)Nc3ccc(N4CCC(CN5CCN(CC6CN(c7ccc8c(c7)C(=O)N(C7CCC(=O)NC7=O)C8=O)C6)CC5)CC4)cn3)CC2)cc1Cl (stereo not drawn) [Example 12, 1-(3-chloro-4-cyanophenyl)-N-(5-(4-((4-((1-(2-(2,6-dioxopiperidin-3-yl)-1,3-dioxoisoindolin-5-yl)azetidin-3-yl)methyl)piperazin-1-yl)methyl)piperidin-1-yl)pyridin-2-yl)piperidine-4-carboxamide] | 52 | 95 | 97 | 94
12 | N#Cc1ccc(N2CCC(C(=O)Nc3ccc(N4CCC(CN5CCN(CC6CCN(c7cccc8c7C(=O)N(C7CCC(=O)NC7=O)C8=O)CC6)CC5)CC4)cn3)CC2)cc1C(F)(F)F (stereo not drawn) [Example 13, 1-(4-cyano-3-(trifluoromethyl)phenyl)-N-(5-(4-((4-((1-(2-(2,6-dioxopiperidin-3-yl)-1,3-dioxoisoindolin-4-yl)piperidin-4-yl)methyl)piperazin-1-yl)methyl)piperidin-1-yl)pyridin-2-yl)piperidine-4-carboxamide] | 59 | 91 | 94 | –
